# Source: ChEMBL document CHEMBL5058649, “Data for DCP probe BAY 1816032” (2022)
# Key:
# [1] = molecular target: Vasopressin V1a receptor (Homo sapiens) (UniProt P37288); assay: Vasopressin V1A Eurofins-Panlabs radioligand binding assay; details: Compound concentration 10.0 uM
# [2] = molecular target: Serine/threonine-protein kinase NIM1 (Homo sapiens) (UniProt Q8IY84); assay: NIM1 DiscoveRx kinase panel; details: Compound concentration 1.0 uM
# [3] = molecular target: Acetylcholinesterase (Homo sapiens) (UniProt P22303); details: Compound concentration 10.0 uM
# [4] = molecular target: Serine/threonine-protein kinase Nek6 (Homo sapiens) (UniProt Q9HC98); assay: NEK6 DiscoveRx kinase panel; details: Compound concentration 1.0 uM
# [5] = molecular target: Mitogen-activated protein kinase 8 (Homo sapiens) (UniProt P45983); assay: JNK1 DiscoveRx kinase panel; details: Compound concentration 1.0 uM
# [6] = molecular target: Cysteinyl leukotriene receptor 1 (Homo sapiens) (UniProt Q9Y271); assay: Inhibition of Leukotriene, Cysteinyl CysLT1 at 10 µM in the Eurofins-Panlabs radioligand binding assay (Eurofins_assay_250460); set-up: ligand concentration 0.3 nM, non-specific ligand with concentration 0.3 µM Leukotriene D4, incubation time 30 min, incubation temperature 25 °C; details: Compound concentration 10.0 uM
# [7] = molecular target: Prostaglandin G/H synthase 2 (Homo sapiens) (UniProt P35354); assay: Cyclooxygenase COX-2 Eurofins-Panlabs enzyme assay; set-up: substrate with concentration; details: Compound concentration 10.0 uM
# [8] = molecular target: Tyrosine-protein kinase TXK (Homo sapiens) (UniProt P42681); assay: TXK DiscoveRx kinase panel; details: Compound concentration 1.0 uM
# [9] = molecular target: Mitogen-activated protein kinase kinase kinase 12 (Homo sapiens) (UniProt Q12852); assay: DLK DiscoveRx kinase panel; details: Compound concentration 1.0 uM
# [10] = molecular target: Tyrosine-protein kinase CSK (Homo sapiens) (UniProt P41240); assay: CSK DiscoveRx kinase panel; details: Compound concentration 1.0 uM
# [11] = molecular target: Platelet-derived growth factor receptor alpha (Homo sapiens) (UniProt P16234); assay: PDGFRA DiscoveRx kinase panel; details: Compound concentration 1.0 uM
# [12] = molecular target: SNF-related serine/threonine-protein kinase (Homo sapiens) (UniProt Q9NRH2); assay: SNRK DiscoveRx kinase panel; details: Compound concentration 1.0 uM
# [13] = molecular target: LIM domain kinase 1 (Homo sapiens) (UniProt P53667); assay: LIMK1 DiscoveRx kinase panel; details: Compound concentration 1.0 uM
# hERG (KCNH2) = hERG (KCNH2) (Homo sapiens, UniProt Q12809); assay: Inhibition of Potassium Channel hERG at 10 µM in the Eurofins-Panlabs radioligand binding assay (Eurofins_assay_265900); set-up: ligand concentration 1.5 nM, non-specific ligand with concentration Astemizole, incubation time 60 min, incubation temperature 25 °C; details: HEK-293 cells expressing human recombinant hERG, probe [3H] Astemizole, compound concentration 10 uM
# [14] = molecular target: 5-hydroxytryptamine receptor 2B (Homo sapiens) (UniProt P41595); details: Compound concentration 10.0 uM
# [15] = molecular target: Serine/threonine-protein kinase NLK (Homo sapiens) (UniProt Q9UBE8); assay: NLK DiscoveRx kinase panel; details: Compound concentration 1.0 uM
# [16] = molecular target: Serine/threonine-protein kinase Chk1 (Homo sapiens) (UniProt O14757); assay: CHEK1 DiscoveRx kinase panel; details: Compound concentration 1.0 uM
# [17] = molecular target: Serine/threonine-protein kinase TAO1 (Homo sapiens) (UniProt Q7L7X3); assay: TAOK1 DiscoveRx kinase panel; details: Compound concentration 1.0 uM
# [18] = molecular target: Calcium/calmodulin-dependent protein kinase type IV (Homo sapiens) (UniProt Q16566); assay: CAMK4 DiscoveRx kinase panel; details: Compound concentration 1.0 uM
# [19] = molecular target: Mitogen-activated protein kinase 11 (Homo sapiens) (UniProt Q15759); assay: p38-beta DiscoveRx kinase panel; details: Compound concentration 1.0 uM
# [20] = molecular target: Mitogen-activated protein kinase kinase kinase 3 (Homo sapiens) (UniProt Q99759); assay: MAP3K3 DiscoveRx kinase panel; details: Compound concentration 1.0 uM
# [21] = molecular target: Myosin light chain kinase family member 4 (Homo sapiens) (UniProt Q86YV6); assay: MYLK4 DiscoveRx kinase panel; details: Compound concentration 1.0 uM
# [22] = molecular target: GABA-A receptor; anion channel (Rattus norvegicus) (UniProt O09028+P15431+P18506+P18508+P19969+P20236+P23574+P23576+P28471+P28473+P30191+P62813+P63079+P63138+Q91ZM7+Q9ES14); details: Compound concentration 10.0 uM
# [23] = molecular target: Serine/threonine-protein kinase Nek5 (Homo sapiens) (UniProt Q6P3R8); assay: NEK5 DiscoveRx kinase panel; details: Compound concentration 1.0 uM
# [24] = molecular target: STE20/SPS1-related proline-alanine-rich protein kinase (Homo sapiens) (UniProt Q9UEW8); assay: STK39 DiscoveRx kinase panel; details: Compound concentration 1.0 uM
# [25] = molecular target: Homeodomain-interacting protein kinase 1 (Homo sapiens) (UniProt Q86Z02); assay: HIPK1 DiscoveRx kinase panel; details: Compound concentration 1.0 uM
# [26] = molecular target: Dual specificity protein kinase CLK4 (Homo sapiens) (UniProt Q9HAZ1); assay: CLK4 DiscoveRx kinase panel; details: Compound concentration 1.0 uM
# [27] = molecular target: Cyclin-dependent kinase-like 2 (Homo sapiens) (UniProt Q92772); assay: CDKL2 DiscoveRx kinase panel; details: Compound concentration 1.0 uM
# [28] = molecular target: Serine/threonine-protein kinase Nek10 (Homo sapiens) (UniProt Q6ZWH5); assay: NEK10 DiscoveRx kinase panel; details: Compound concentration 1.0 uM
# [29] = molecular target: Ephrin type-A receptor 6 (Homo sapiens) (UniProt Q9UF33); assay: EPHA6 DiscoveRx kinase panel; details: Compound concentration 1.0 uM
# [30] = molecular target: Estrogen receptor (Homo sapiens) (UniProt P03372); details: Compound concentration 10.0 uM
# [31] = molecular target: Calcium/calmodulin-dependent protein kinase type 1G (Homo sapiens) (UniProt Q96NX5); assay: CAMK1G DiscoveRx kinase panel; details: Compound concentration 1.0 uM
# [32] = molecular target: Phosphatidylinositol 5-phosphate 4-kinase type-2 gamma (Homo sapiens) (UniProt Q8TBX8); assay: PIP5K2C DiscoveRx kinase panel; details: Compound concentration 1.0 uM
# [33] = molecular target: Ribosomal protein S6 kinase alpha-6 (Homo sapiens) (UniProt Q9UK32); assay: RSK4(Kin.Dom.1-N-terminal) DiscoveRx kinase panel; details: Compound concentration 1.0 uM
# HeLa = assay: HeLa cell line Proliferation assay; format: functional, Homo sapiens; details: time 4 day
# [34] = molecular target: D(1B) dopamine receptor (Homo sapiens) (UniProt P21918); details: Compound concentration 10.0 uM
# [35] = molecular target: Serine/threonine-protein kinase WNK1 (Homo sapiens) (UniProt Q9H4A3); assay: WNK1 DiscoveRx kinase panel; details: Compound concentration 1.0 uM
# [36] = molecular target: Cytoplasmic tyrosine-protein kinase BMX (Homo sapiens) (UniProt P51813); assay: BMX DiscoveRx kinase panel; details: Compound concentration 1.0 uM
# [37] = molecular target: High affinity nerve growth factor receptor (Homo sapiens) (UniProt P04629); assay: TRKA DiscoveRx kinase panel; details: Compound concentration 1.0 uM
# [38] = molecular target: Platelet-activating factor receptor (Homo sapiens) (UniProt P25105); assay: Inhibition of Platelet Activating Factor (PAF) at 10 µM in the Eurofins-Panlabs radioligand binding assay (Eurofins_assay_265010); details: Compound concentration 10.0 uM
# MDA-MB-468 = assay: MDA-MB-468 cell line Proliferation assay; format: functional, Homo sapiens; details: time 4 day
# [39] = molecular target: Histamine H1 receptor (Homo sapiens) (UniProt P35367); details: Compound concentration 10.0 uM
# [40] = molecular target: Receptor-type tyrosine-protein kinase FLT3 (Homo sapiens) (UniProt P36888); assay: FLT3 DiscoveRx kinase panel; details: Compound concentration 1.0 uM
# [41] = molecular target: Cyclin-dependent kinase 8 (Homo sapiens) (UniProt P49336); assay: CDK8 DiscoveRx kinase panel; details: Compound concentration 1.0 uM
# [42] = molecular target: Calcium/calmodulin-dependent protein kinase type II subunit delta (Homo sapiens) (UniProt Q13557); assay: CAMK2D DiscoveRx kinase panel; details: Compound concentration 1.0 uM
# [43] = molecular target: Aurora kinase B (Homo sapiens) (UniProt Q96GD4); assay: AURKB DiscoveRx kinase panel; details: Compound concentration 1.0 uM
# [44] = molecular target: Cyclin-G-associated kinase (Homo sapiens) (UniProt O14976); assay: GAK DiscoveRx kinase panel; details: Compound concentration 1.0 uM
# Serine/threonine-protein kinase WNK1 (Homo sapiens), sequence (Q9H4A3 whole entry, looked up): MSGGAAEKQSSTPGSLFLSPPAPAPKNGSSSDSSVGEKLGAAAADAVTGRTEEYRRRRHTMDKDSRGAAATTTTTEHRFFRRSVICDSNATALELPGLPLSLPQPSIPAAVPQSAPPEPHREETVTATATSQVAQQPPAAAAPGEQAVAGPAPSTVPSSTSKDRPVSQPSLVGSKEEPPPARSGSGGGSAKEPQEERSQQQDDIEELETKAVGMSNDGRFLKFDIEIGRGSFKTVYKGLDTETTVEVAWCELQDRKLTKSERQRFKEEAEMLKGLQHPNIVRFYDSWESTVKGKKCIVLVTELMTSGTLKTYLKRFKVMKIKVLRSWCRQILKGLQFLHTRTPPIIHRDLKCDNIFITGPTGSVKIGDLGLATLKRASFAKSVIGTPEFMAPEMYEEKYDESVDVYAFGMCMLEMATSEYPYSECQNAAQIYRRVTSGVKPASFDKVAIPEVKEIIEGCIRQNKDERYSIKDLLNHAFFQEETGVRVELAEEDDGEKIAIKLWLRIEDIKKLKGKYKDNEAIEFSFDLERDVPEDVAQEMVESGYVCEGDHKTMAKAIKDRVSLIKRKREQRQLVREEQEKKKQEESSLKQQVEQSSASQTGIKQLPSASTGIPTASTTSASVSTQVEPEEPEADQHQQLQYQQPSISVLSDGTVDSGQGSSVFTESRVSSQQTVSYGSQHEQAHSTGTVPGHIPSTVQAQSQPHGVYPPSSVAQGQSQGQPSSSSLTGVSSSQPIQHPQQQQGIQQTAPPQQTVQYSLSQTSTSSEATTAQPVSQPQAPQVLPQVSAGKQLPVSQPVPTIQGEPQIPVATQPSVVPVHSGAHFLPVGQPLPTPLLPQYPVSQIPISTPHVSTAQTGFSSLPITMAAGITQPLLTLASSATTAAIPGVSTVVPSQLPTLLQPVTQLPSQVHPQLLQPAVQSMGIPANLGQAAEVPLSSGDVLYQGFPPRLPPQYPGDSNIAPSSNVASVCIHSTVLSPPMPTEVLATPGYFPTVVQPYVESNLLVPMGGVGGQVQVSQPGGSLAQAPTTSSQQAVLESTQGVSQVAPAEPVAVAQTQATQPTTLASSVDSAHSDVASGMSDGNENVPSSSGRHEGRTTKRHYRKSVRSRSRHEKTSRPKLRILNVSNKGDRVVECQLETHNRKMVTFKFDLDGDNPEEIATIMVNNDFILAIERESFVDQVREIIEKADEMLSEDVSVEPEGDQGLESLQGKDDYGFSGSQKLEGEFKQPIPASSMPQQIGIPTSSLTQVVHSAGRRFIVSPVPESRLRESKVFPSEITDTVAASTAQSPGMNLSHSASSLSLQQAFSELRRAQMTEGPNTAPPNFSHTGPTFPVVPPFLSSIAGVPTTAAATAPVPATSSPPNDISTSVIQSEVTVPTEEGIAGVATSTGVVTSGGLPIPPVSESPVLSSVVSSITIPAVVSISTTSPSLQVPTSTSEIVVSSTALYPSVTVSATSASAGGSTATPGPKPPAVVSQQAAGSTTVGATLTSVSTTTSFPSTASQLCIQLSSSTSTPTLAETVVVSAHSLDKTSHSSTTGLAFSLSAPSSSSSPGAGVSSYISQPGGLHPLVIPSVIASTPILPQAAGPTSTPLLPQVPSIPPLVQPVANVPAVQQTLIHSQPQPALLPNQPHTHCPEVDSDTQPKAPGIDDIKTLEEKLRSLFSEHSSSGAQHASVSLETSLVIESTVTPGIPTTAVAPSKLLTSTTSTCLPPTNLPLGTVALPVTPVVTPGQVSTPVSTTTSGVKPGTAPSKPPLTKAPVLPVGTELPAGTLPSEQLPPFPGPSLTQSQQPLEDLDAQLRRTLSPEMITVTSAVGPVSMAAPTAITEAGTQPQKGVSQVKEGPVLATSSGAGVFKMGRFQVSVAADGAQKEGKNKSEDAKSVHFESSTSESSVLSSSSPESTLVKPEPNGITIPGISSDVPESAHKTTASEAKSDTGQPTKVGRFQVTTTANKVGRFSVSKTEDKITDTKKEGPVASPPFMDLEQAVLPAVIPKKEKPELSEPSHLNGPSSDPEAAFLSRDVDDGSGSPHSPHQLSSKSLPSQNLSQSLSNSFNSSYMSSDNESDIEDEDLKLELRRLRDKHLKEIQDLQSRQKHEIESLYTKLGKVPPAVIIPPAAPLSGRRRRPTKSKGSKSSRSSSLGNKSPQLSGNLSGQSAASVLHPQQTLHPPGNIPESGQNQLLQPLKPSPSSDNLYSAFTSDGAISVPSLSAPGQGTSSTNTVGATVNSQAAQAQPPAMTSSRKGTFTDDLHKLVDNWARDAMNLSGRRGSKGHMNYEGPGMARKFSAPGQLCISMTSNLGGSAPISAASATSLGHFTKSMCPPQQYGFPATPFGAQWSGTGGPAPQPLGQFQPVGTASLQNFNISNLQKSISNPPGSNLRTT
# hERG (KCNH2), sequence (Q12809 whole entry): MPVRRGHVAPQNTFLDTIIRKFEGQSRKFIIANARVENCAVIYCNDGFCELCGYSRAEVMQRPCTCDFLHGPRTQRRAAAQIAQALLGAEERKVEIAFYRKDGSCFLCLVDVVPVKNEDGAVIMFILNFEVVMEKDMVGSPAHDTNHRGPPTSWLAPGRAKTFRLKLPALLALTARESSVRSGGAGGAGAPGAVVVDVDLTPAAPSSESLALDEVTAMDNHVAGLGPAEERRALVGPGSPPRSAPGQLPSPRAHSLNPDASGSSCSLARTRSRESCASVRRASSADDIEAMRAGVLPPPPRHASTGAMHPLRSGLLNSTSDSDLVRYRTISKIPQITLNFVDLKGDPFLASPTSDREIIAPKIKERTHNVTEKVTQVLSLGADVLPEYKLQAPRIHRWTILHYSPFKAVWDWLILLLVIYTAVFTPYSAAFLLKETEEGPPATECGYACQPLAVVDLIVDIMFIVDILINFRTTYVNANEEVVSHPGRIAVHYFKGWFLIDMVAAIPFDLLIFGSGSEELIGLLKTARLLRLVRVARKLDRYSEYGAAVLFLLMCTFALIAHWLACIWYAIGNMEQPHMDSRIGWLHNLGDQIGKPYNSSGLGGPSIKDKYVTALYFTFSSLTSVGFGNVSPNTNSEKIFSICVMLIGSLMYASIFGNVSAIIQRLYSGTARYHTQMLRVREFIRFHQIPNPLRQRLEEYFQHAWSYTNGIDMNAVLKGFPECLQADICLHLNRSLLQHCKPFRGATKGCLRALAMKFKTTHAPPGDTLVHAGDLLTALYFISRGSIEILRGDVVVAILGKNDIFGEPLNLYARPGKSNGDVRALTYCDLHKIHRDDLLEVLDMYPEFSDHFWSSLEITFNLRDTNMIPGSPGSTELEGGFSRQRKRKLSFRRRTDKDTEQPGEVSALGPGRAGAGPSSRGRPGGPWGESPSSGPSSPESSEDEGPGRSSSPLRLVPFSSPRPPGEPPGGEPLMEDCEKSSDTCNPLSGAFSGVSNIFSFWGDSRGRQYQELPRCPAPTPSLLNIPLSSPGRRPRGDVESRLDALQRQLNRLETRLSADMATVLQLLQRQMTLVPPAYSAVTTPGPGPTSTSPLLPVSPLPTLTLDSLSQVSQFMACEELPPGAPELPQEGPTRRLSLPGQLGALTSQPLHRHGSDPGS
# Aurora kinase B (Homo sapiens), sequence (Q96GD4 whole entry): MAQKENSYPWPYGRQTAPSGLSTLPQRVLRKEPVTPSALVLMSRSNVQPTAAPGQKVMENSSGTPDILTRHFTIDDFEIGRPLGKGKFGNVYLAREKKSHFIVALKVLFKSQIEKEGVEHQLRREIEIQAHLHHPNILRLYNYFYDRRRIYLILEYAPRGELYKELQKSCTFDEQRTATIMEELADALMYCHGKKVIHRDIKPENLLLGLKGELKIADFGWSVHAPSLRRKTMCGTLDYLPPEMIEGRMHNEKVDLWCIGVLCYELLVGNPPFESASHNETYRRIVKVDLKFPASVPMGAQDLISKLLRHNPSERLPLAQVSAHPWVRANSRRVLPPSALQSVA
# Platelet-derived growth factor receptor alpha (Homo sapiens), sequence (P16234 whole entry): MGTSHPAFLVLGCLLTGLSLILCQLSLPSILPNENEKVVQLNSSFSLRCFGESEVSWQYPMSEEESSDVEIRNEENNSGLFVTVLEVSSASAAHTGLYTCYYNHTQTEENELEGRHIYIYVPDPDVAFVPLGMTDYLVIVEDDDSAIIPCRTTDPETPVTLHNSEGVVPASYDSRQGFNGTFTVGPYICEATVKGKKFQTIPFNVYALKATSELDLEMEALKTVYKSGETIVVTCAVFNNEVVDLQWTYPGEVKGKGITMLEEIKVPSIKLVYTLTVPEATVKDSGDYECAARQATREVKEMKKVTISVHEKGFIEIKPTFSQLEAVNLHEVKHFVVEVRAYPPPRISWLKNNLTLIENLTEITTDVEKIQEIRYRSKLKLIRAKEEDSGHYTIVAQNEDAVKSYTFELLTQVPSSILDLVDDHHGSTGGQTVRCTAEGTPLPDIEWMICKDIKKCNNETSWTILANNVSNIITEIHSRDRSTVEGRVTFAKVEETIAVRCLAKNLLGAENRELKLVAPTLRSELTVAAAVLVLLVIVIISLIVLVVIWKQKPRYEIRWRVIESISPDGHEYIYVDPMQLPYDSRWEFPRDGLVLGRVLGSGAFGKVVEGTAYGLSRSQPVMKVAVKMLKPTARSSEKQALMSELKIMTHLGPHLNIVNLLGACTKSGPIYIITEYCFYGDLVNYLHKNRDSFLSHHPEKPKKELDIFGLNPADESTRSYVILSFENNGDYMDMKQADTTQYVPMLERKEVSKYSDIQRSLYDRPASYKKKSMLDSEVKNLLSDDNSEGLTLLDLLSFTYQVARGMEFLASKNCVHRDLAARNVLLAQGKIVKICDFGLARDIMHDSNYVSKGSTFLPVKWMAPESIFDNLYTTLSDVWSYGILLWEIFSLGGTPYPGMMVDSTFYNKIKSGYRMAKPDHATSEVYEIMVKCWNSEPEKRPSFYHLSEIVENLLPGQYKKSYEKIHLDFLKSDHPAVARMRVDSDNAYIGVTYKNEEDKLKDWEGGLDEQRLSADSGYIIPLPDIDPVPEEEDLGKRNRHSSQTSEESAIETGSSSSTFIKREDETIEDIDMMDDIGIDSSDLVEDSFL
compound,measurement,setting,value
COc1cnccc1Nc1nc(-c2nn(Cc3c(F)cc(OCCO)cc3F)c3ccccc23)ncc1OC,inhibition,[1],11%
same,residual activity,[2],88%
same,inhibition,[3],2%
same,residual activity,[4],70%
same,residual activity,[5],79%
same,inhibition,[6],32%
same,inhibition,[7],-9%
same,residual activity,[8],64%
same,residual activity,[9],87%
same,residual activity,[10],77%
same,residual activity,[11],100%
same,residual activity,[12],96%
same,residual activity,[13],86%
same,"inhibition at 60 min, 10 µM",hERG (KCNH2),23% (not active)
same,inhibition,[14],1.96%
same,residual activity,[15],88%
same,residual activity,[16],93%
same,residual activity,[17],100%
same,residual activity,[18],68%
same,residual activity,[19],82%
same,residual activity,[20],95%
same,residual activity,[21],100%
same,inhibition,[22],7%
same,residual activity,[23],88%
same,residual activity,[24],97%
same,residual activity,[25],94%
same,residual activity,[26],83%
same,residual activity,[27],90%
same,residual activity,[28],100%
same,residual activity,[29],89%
same,inhibition,[30],10%
same,residual activity,[31],99%
same,residual activity,[32],100%
same,residual activity,[33],100%
same,Cell Proliferation IC50,HeLa,1600 nM
same,inhibition,[34],-0.37%
same,residual activity,[35],85%
same,residual activity,[36],100%
same,residual activity,[37],92%
same,inhibition,[38],28%
same,Cell Proliferation IC50,MDA-MB-468,1000 nM
same,inhibition,[39],16.9%
same,residual activity,[40],88%
same,residual activity,[41],69%
same,residual activity,[42],100%
same,residual activity,[43],100%
same,residual activity,[44],77%
